Data set [1] can be described thus: Compound stability in human liver microsomes. The conditions noted are these: for half-life at 5 μM: human liver microsomes 0.5 mg protein/mL, compound 5 μM, NADPH 1.0 mM, 37° C.; for CLint scaled at 5 μM: human liver microsomes, in vivo CLint extrapolated. Type of data set: in vitro ADME.
Another data set addresses PI3K (p110δ/p85α) (h) (Homo sapiens (Human), UniProt O00329). Briefly: PI3K (p110δ/p85α) (h) non-radioactive HTRF kinase assay. Type of data set: biochemical.
Data set [2] is described as follows: Compound stability in rat liver microsomes. Type of data set: in vitro ADME. To be noted: pH 7.4; for half-life at 5 μM: rat liver microsomes 0.5 mg protein/mL, compound 5 μM, NADPH 1.0 mM, 37° C.; for CLint scaled at 5 μM: rat liver microsomes, in vivo CLint extrapolated.
The nature of data set [3]: Pharmacokinetics after intravenous and oral administration in rats. The conditions noted are these: for clearance (CL) / AUC(0-t) / half-life / Vd: iv dosing; for bioavailability / AUC(0-t) / half-life / Vd: rat, plasma; for bioavailability: oral dose generally 5 or 10 mg/kg; for Vd: read-out: Vss. Type of data set: in vivo, rat.

Like-named read-outs stand apart in the source and are kept apart here. Some results are limits rather than exact numbers.

Chain of PI3K (p110δ/p85α) (h) (O00329 whole entry): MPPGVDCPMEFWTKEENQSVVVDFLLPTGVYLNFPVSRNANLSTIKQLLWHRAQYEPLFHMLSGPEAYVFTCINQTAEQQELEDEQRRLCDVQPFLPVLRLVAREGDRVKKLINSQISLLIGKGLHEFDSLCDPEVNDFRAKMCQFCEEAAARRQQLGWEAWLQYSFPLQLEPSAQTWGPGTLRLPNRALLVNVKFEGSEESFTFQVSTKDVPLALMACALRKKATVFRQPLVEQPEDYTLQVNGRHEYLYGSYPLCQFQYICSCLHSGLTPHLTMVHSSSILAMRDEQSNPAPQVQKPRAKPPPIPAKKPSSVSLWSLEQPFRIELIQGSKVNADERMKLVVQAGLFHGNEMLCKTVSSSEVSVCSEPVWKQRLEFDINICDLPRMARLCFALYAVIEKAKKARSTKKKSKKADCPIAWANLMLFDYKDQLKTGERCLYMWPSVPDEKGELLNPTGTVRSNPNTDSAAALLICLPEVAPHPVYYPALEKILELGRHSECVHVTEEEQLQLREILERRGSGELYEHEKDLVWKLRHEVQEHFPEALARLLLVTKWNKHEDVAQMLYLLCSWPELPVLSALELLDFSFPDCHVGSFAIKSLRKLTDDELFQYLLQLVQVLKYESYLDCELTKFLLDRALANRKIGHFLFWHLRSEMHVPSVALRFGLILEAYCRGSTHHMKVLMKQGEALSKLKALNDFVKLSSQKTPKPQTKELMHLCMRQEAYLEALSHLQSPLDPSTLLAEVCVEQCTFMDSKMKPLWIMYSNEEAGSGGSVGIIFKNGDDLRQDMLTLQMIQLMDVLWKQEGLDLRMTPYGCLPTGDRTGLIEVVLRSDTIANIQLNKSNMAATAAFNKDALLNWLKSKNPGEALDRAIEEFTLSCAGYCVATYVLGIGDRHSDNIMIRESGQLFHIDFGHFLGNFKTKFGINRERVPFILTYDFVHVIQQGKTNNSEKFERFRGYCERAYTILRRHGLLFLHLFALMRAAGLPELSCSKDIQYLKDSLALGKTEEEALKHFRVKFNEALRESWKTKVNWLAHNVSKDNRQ
Chain of PI3K (p110δ/p85α) (h) (P27986 whole entry partner): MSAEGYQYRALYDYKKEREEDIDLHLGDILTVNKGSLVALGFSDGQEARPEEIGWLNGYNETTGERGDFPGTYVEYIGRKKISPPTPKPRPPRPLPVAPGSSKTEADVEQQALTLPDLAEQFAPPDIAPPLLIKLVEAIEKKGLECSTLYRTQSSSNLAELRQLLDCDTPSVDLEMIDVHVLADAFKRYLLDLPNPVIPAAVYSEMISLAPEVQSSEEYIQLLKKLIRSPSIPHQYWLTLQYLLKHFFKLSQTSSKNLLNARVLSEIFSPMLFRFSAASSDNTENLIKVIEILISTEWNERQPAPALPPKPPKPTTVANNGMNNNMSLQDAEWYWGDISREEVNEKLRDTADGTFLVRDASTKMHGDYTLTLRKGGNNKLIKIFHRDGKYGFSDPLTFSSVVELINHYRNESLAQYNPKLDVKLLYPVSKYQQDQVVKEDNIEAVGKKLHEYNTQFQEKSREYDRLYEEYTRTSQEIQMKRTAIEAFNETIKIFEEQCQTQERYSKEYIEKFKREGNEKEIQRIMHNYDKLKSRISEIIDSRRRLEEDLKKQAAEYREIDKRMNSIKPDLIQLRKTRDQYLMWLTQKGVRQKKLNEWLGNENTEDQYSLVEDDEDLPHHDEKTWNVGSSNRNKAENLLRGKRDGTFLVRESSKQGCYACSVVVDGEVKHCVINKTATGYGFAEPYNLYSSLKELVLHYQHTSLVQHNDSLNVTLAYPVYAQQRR

Take `CC[C@@H](Nc1ncnc(N)c1-c1nc(C)no1)c1nc2cccc(Cl)c2c(=O)n1C1CC1` [Ex. 19, (R)-2-(1-((6-amino-5-(3-methyl-1,2,4-oxadiazol-5-yl)pyrimidin-4-yl)amino)propyl)-5-chloro-3-cyclopropylquinazolin-4(3H)-one]: in data set [1], the half-life (as a rule, the time in which the quantity being followed falls by half) at 5 μM came to 52.4 min and the CLint scaled (in general, the rate of metabolic loss divided by the concentration) at 5 μM was 47.4 mL/min/kg. Moreover, the IC50 (commonly the concentration at which inhibition is half-maximal) on PI3K (p110δ/p85α) (h) is more than 3000 nM. Further, in data set [2], the half-life at 5 μM was 19.7 min and the CLint scaled at 5 μM was 126 mL/min/kg. Also, in data set [3] (dose 1 mg/kg), the “clearance (CL)” value is 7.62 L/h/kg; the AUC(0-t) (usually exposure summed from dosing to a finite time, without extrapolation to infinity) turned out to be 132 ng·h/mL; the half-life is 51.6 min; the Vd is 6.98 L/kg. For the same compound, the bioavailability in data set [3] (iv dose 1 mg/kg) is 5.49%.

As to `CC[C@H](Nc1ncnc(N)c1-c1ncn(C)n1)c1nc2cccc(F)c2c(=O)n1C1CC1` [Ex. 26, (S)-2-(1-((6-amino-5-(1-methyl-1H-1,2,4-triazol-3-yl)pyrimidin-4-yl)amino)propyl)-3-cyclopropyl-5-fluoroquinazolin-4(3H)-one], in data set [1], the half-life at 5 μM was found to be 74.5 min and the CLint scaled at 5 μM was 33.4 mL/min/kg. The IC50 at PI3K (p110δ/p85α) (h) came to 2290 nM. Also, in data set [2], the half-life at 5 μM came to 66.3 min and the CLint scaled at 5 μM was 37.4 mL/min/kg. Besides, in data set [3] (dose 1 mg/kg), the “clearance (CL)” value is on record as 2.22 L/h/kg, the AUC(0-t) was 443 ng·h/mL, the half-life was 128 min and the Vd turned out to be 2.5 L/kg. Further, the bioavailability in data set [3] (iv dose 1 mg/kg) is 45.8%.

Consider `CC[C@H](Nc1ncnc(N)c1-c1nc(C)no1)c1nc2cccc(C)c2c(=O)n1C1CC1` [Ex. 21, (S)-2-(1-((6-amino-5-(3-methyl-1,2,4-oxadiazol-5-yl)pyrimidin-4-yl)amino)-propyl)-3-cyclopropyl-5-methylquinazolin-4(3H)-one], for which, in data set [1], the half-life at 5 μM amounted to 25.4 min and the CLint scaled at 5 μM is 97.7 mL/min/kg. The IC50 on PI3K (p110δ/p85α) (h) was 19 nM. In addition, in data set [2], the half-life at 5 μM worked out at 25 min and the CLint scaled at 5 μM is 99.3 mL/min/kg. Further, in data set [3] (dose 1 mg/kg), the “clearance (CL)” value was 3.35 L/h/kg, the AUC(0-t) is 292 ng·h/mL, the half-life was 96.6 min and the Vd was 6.24 L/kg. Besides, in data set [3] (iv dose 1 mg/kg), the bioavailability worked out at 57.5%.

With `CC[C@H](Nc1ncnc(N)c1-c1noc(C)n1)c1nc2cccc(F)c2c(=O)n1C1CC1` [Ex. 16, (S)-2-(1-((6-amino-5-(5-methyl-1,2,4-oxadiazol-3-yl)pyrimidin-4-yl)amino)-propyl)-3-cyclopropyl-5-fluoroquinazolin-4(3H)-one], in data set [1], the half-life at 5 μM stood at 22.9 min and the CLint scaled at 5 μM was 108 mL/min/kg. In addition, in data set [2], the half-life at 5 μM is 19.7 min and the CLint scaled at 5 μM is 126 mL/min/kg. Besides, in data set [3] (dose 1 mg/kg), the “clearance (CL)” value was 4.12 L/h/kg, the AUC(0-t) was 249 ng·h/mL, the half-life was 45.6 min and the Vd is 4.3 L/kg. The bioavailability in data set [3] (iv dose 1 mg/kg) came out at 18.3%.

Consider `CC[C@H](Nc1ncnc(N)c1-c1nnn(C)n1)c1nc2cccc(F)c2c(=O)n1-c1ccccc1` [Ex. 43, (S)-2-(1-((6-amino-5-(2-methyl-2H-tetrazol-5-yl)pyrimidin-4-yl)amino)-propyl)-5-fluoro-3-phenylquinazolin-4(3H)-one], for which, in data set [1], the half-life at 5 μM was determined as 7.12 min and the CLint scaled at 5 μM was 244 mL/min/kg. Besides, in data set [2], the half-life at 5 μM was determined as 7.15 min and the CLint scaled at 5 μM is 347 mL/min/kg. Besides, in data set [3] (dose 1 mg/kg), the “clearance (CL)” value is reported as 2.21 L/h/kg, the AUC(0-t) was 452 ng·h/mL, the half-life is 91.2 min and the Vd was 3.41 L/kg. In data set [3] (iv dose 1 mg/kg), the bioavailability was 90%.

As for `CC[C@H](Nc1ncnc(N)c1C1=N[C@@H](C)CO1)c1nc2cccc(Cl)c2c(=O)n1C1CC1` [Ex. 5, 2-((S)-1-((6-amino-5-((S)-4-methyl-4,5-dihydrooxazol-2-yl)pyrimidin-4-yl)amino)propyl)-5-chloro-3-cyclopropylquinazolin-4(3H)-one], in data set [1], the half-life at 5 μM was 5.52 min and the CLint scaled at 5 μM was 315 mL/min/kg. Further, in data set [2], the half-life at 5 μM amounted to 5.98 min and the CLint scaled at 5 μM is 416 mL/min/kg. Further, in data set [3] (dose 1 mg/kg), the “clearance (CL)” value amounted to 3.57 L/h/kg, the AUC(0-t) was 276 ng·h/mL, the half-life is 91.2 min and the Vd amounted to 11.9 L/kg. Also, the bioavailability in data set [3] (iv dose 1 mg/kg) came to 30.4%.

For the compound `CC[C@H](Nc1ncnc(N)c1-c1ncnn1C)c1nc2cccc(Cl)c2c(=O)n1C1CC1` [Ex. 9, 2-((1S)-1-((6-amino-5-(1-methyl-1H-1,2,4-triazol-5-yl)pyrimidin-4-yl)amino)-propyl)-5-chloro-3-cyclopropylquinazolin-4(3H)-one], in data set [1], the half-life at 5 μM came to 160 min and the CLint scaled at 5 μM was 10.9 mL/min/kg. In data set [2], the half-life at 5 μM was 56.8 min and the CLint scaled at 5 μM was 43.8 mL/min/kg. In data set [3] (dose 1 mg/kg), the “clearance (CL)” value worked out at 1.64 L/h/kg, the AUC(0-t) amounted to 608 ng·h/mL, the half-life was 78 min and the Vd came out at 2.12 L/kg. Moreover, in data set [3] (iv dose 1 mg/kg), the bioavailability came to 158%.

On to `CC[C@H](Nc1ncnc(N)c1-c1ccon1)c1nc2cccc(Cl)c2c(=O)n1C1CC1` [Ex. 14, (S)-2-(1-((6-amino-5-(isoxazol-3-yl)pyrimidin-4-yl)amino)propyl)-5-chloro-3-cyclopropylquinazolin-4(3H)-one], for which the IC50 at PI3K (p110δ/p85α) (h) was 20 nM. Moreover, in data set [3] (dose 1 mg/kg), the “clearance (CL)” value was 2.80 L/h/kg, the AUC(0-t) worked out at 362 ng·h/mL, the half-life was 45.6 min and the Vd came to 2.18 L/kg. Moreover, in data set [3] (iv dose 1 mg/kg), the bioavailability was 23.1%.

For `CC[C@@H](Nc1ncnc(N)c1-c1ccon1)c1nc2cccc(Cl)c2c(=O)n1C1CC1` [Ex. 49, (R)-2-(1-((6-amino-5-(isoxazol-3-yl)pyrimidin-4-yl)amino)propyl)-5-chloro-3-cyclopropylquinazolin-4(3H)-one], in data set [1], the half-life at 5 μM was 43.8 min and the CLint scaled at 5 μM was 39.7 mL/min/kg. Besides, in data set [2], the half-life at 5 μM is 2.43 min and the CLint scaled at 5 μM is 1020 mL/min/kg. Besides, in data set [3] (dose 1 mg/kg), the “clearance (CL)” value came to 5.12 L/h/kg, the AUC(0-t) is 196 ng·h/mL, the half-life is 39.6 min and the Vd was found to be 4.1 L/kg. For the same compound, in data set [3] (iv dose 1 mg/kg), the bioavailability was 4.37%.

Consider `CC[C@H](Nc1ncnc(N)c1-c1noc(C)n1)c1nc2cccc(C)c2c(=O)n1-c1ccccc1C` [Ex. 15, (S)-2-(1-((6-amino-5-(5-methyl-1,2,4-oxadiazol-3-yl)pyrimidin-4-yl)amino)-propyl)-5-methyl-3-(o-tolyl)quinazolin-4(3H)-one], for which, in data set [1], the half-life at 5 μM is 12.6 min and the CLint scaled at 5 μM was 138 mL/min/kg. In data set [2], the half-life at 5 μM was determined as 4.84 min and the CLint scaled at 5 μM is 513 mL/min/kg. Moreover, in data set [3] (dose 1 mg/kg), the “clearance (CL)” value was determined as 4.45 L/h/kg, the AUC(0-t) turned out to be 223 ng·h/mL, the half-life was 69.6 min and the Vd was 7.41 L/kg. For the same compound, the bioavailability in data set [3] (iv dose 1 mg/kg) was 36.4%.

Turning to `CC[C@H](Nc1ncnc(N)c1-c1ncn(C)n1)c1nc2cccc(C)c2c(=O)n1-c1ccccc1C` [Ex. 30, (S)-2-(1-((6-amino-5-(1-methyl-1H-1,2,4-triazol-3-yl)pyrimidin-4-yl)amino)-propyl)-5-methyl-3-(o-tolyl)quinazolin-4(3H)-one], in data set [1], the half-life at 5 μM came out at 17.8 min and the CLint scaled at 5 μM was 140 mL/min/kg. In addition, in data set [2], the half-life at 5 μM was determined as 8.46 min and the CLint scaled at 5 μM was 294 mL/min/kg. In data set [3] (dose 1 mg/kg), the “clearance (CL)” value was 4.23 L/h/kg, the AUC(0-t) came to 238 ng·h/mL, the half-life was 51.6 min and the Vd is 3.84 L/kg. Besides, in data set [3] (iv dose 1 mg/kg), the bioavailability was determined as 22.4%.

Take `CC[C@H](Nc1ncnc(N)c1-c1nnc(C)o1)c1nc2cccc(Cl)c2c(=O)n1-c1ccccc1C` [Ex. 35, (S)-2-(1-((6-amino-5-(5-methyl-1,3,4-oxadiazol-2-yl)pyrimidin-4-yl)-amino)propyl)-5-chloro-3-(o-tolyl)quinazolin-4(3H)-one]: in data set [1], the half-life at 5 μM came to 37.9 min and the CLint scaled at 5 μM was 45.9 mL/min/kg. Besides, in data set [2], the half-life at 5 μM came to 8.87 min and the CLint scaled at 5 μM is 280 mL/min/kg. For the same compound, in data set [3] (dose 0.5 mg/kg), the “clearance (CL)” value is on record as 3.18 L/h/kg, the AUC(0-t) amounted to 157 ng·h/mL, the half-life was 67.8 min and the Vd was determined as 3.46 L/kg. In addition, in data set [3] (iv dose 0.5 mg/kg), the bioavailability turned out to be 41.8%.

Turning to `CC[C@H](Nc1ncnc(N)c1-c1ncc(C)o1)c1nc2cccc(C)c2c(=O)n1-c1ccccc1C` [Ex. 28, (S)-2-(1-((6-amino-5-(5-methyloxazol-2-yl)pyrimidin-4-yl)amino)propyl)-5-methyl-3-(o-tolyl)quinazolin-4(3H)-one], in data set [1], the half-life at 5 μM came to 8.69 min and the CLint scaled at 5 μM was 286 mL/min/kg. In data set [2], the half-life at 5 μM came out at 5.12 min and the CLint scaled at 5 μM was 485 mL/min/kg. Further, in data set [3] (dose 1 mg/kg), the “clearance (CL)” value was 3.67 L/h/kg, the AUC(0-t) was 265 ng·h/mL, the half-life is 265 min and the Vd came to 8.92 L/kg. Further, in data set [3] (iv dose 1 mg/kg), the bioavailability stood at 7.67%.

With `CC[C@H](Nc1ncnc(N)c1-c1ncn(C)n1)c1nc2cccc(Cl)c2c(=O)n1-c1ccc(F)cc1` [Ex. 50, (S)-2-(1-((6-amino-5-(1-methyl-1H-1,2,4-triazol-3-yl)pyrimidin-4-yl)amino)propyl)-5-chloro-3-(4-fluorophenyl)quinazolin-4(3H)-one], in data set [1], the half-life at 5 μM worked out at 11.4 min and the intrinsic clearance (CLint scaled) at 5 μM is 152 mL/min/kg. For the same compound, in data set [2], the half-life at 5 μM worked out at 13.3 min and the CLint scaled at 5 μM is 186 mL/min/kg. In data set [3] (dose 1 mg/kg), the “clearance (CL)” value was found to be 5.20 L/h/kg, the AUC(0-t) amounted to 192 ng·h/mL, the half-life was 68.4 min and the Vd is 3.96 L/kg. Besides, the bioavailability in data set [3] (iv dose 1 mg/kg) stood at 28.3%.

Source of the values: patent US9670194B2 (Calitor Sciences, LLC, priority 2013, dated 2017).
